The target in one series is T1, hNur77 (Homo sapiens, UniProt P22736).
T1 construct: The pFR-Luc (Gal4 UAS luciferase) reporter sits in the same cells, and expression is induced by doxycycline
Briefly: Activity on HEK-Nur77 modulation (Gal4-DBD luciferase reporter in stable HEK293 cells). The series is classed as cell-based. The conditions noted are these: 24 hours with compound. How it is done:
Stable HEK293 cells expressing Gal4-DBD-FL-NOT, -hNur77, -hNOR1 and Pfr-Luc were obtained by limit dilution. HEK cells were grown in 75 cm^2 flask in DMEM high glucose 30-2002™ containing 10% calf serum, hygromycin at a content of 250 μg/ml, doxycyclin at a content of 2 μg/ml (to induce expression) and 0.4 mg/ml of penicillin. After one week in culture, cells were harvested by trypsinization then plated onto 96 well dishes at the density of 20,000 cell per well in 75 μl of culture medium. After 24 hours compounds were added (25 μl per well) at different concentration for further 24 hours. The medium was removed and measurement was performed by adding 50 μl of Steadyglo (Promega, E2510) with 50 μl PBS per well for 15 minutes and plates were read using microplate luminescent reader.

Another series addresses T2, Nurr1 (Mus musculus, UniProt Q06219).
T2 construct: N2A cells obtained from ATCC were stably transfected with NBRE8x (50-AAGGTCA-30) in tandem coupled with luciferase reporter gene; host or cells: N2A neuroblastoma cells
Nature of the series: Activity on neuroblastomas cell lines - Nurr1 modulation (N2A cells, NBRE8x luciferase reporter). The conditions noted are these: N2A cells stably transfected with NBRE8x-luciferase, 24 hours with compound; read-out: EC50 activity, Nurr1 modulation in N2A neuroblastoma cells. The series is classed as cell-based. Here is the method: N2A cells obtained from ATCC were stably transfected with NBRE8x (50-AAGGTCA-30) in tandem coupled with luciferase reporter gene. Each NBRE sequence was separated with 5 nucleotides. N2A were grown in 75 cm^2 flask in DMEM containing 10% calf serum, 4.5 g/L glucose and 0.4 mg/ml geneticin. After one week in culture cells were harvested by trypsinization (0.25%, 30 minutes) then plated onto 96 well dishes at the density of 60,000 cell per well in 75 μl of DMEM without phenol red containing 4.5 g/l glucose, 10% lipid free serum from Hyclone. After 24 hours compounds were added (25 μl/well) at different concentration for further 24 hours. Measurement is performed by adding 100 μl of Steadylite per well for 30 minutes and plates are read using microplate […] reader.
For orientation: A reporter such as luciferase makes a cellular process visible.

Our source for the IC50, EC50 and melting point values is patent publication US20240294529A1, “6H-IMIDAZO[1,2-A]PYRROLO[2,3-E]PYRIDINE DERIVATIVES FOR USE IN THERAPY” (SANOFI, priority 2021, published 2024).

T2 sequence (Q06219 whole entry): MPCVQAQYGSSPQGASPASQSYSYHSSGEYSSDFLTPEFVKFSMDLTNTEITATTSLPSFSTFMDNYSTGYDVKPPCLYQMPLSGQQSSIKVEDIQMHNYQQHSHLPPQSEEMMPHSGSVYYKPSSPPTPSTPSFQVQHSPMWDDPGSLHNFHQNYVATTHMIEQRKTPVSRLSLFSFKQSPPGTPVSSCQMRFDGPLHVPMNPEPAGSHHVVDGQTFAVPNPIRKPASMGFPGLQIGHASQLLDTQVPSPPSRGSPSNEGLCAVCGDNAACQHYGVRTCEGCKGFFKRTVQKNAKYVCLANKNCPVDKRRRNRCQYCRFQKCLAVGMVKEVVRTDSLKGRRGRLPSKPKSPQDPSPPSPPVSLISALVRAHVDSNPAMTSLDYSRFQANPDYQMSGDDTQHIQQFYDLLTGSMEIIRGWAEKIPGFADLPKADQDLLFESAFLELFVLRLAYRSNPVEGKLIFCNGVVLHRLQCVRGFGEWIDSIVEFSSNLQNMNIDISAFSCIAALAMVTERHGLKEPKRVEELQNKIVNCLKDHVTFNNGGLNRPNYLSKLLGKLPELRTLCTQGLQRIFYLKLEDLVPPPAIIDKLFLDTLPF
T1 sequence (P22736 360-598 limits assumed): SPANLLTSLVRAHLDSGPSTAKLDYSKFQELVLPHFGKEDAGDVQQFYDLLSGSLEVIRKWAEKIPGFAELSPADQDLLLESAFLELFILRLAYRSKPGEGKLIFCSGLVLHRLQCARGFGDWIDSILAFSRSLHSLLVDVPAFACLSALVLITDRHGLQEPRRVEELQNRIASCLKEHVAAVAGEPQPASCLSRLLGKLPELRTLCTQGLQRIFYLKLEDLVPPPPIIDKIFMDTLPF

A word on the IC50: it is the concentration that inhibits the measured activity by half. One may read the EC50 as the concentration that produces a half-maximal response. With `Clc1ccc(-c2cn3c(ccc4[nH]ccc43)n2)cc1` [compound of formula (2), 2-(4-Chlorophenyl)-6H-imidazo[1,2-a]pyrrolo[2,3-e]pyridine], at hNur77, the IC50 came out at 300 nM. Moreover, the EC50 on Nurr1 turned out to be 0.03 nM.

By melting point is commonly meant the temperature, or range, at which the solid turns liquid. Turning to `Clc1ccc(-c2nc3ccc4[nH]ccc4n3c2Cl)cc1` [compound of formula (1), 1-Chloro-2-(4-chlorophenyl)-6H-imidazo[1,2-a]pyrrolo[2,3-e]pyridine], the melting point turned out to be 252 °C. The IC50 at hNur77 stood at 10000 nM. In addition, the EC50 on Nurr1 was 0.2 nM.
